Data: PMC2651670 (Biochemistry, 2009)

How the values were obtained:
subcomplex Iλ = subcomplex Iλ (Bos taurus, UniProt P25708); test: NADH:Q1 oxidoreduction; format: biochemical; conditions: 100 μM NADH, 0.4 mg/mL asolectin, with or without 2.3 μM rotenone, pH 7.55, 32 °C; flavin site
[1] = molecular target: complex I (NADH:ubiquinone oxidoreductase), hydrophobic (physiological) Q-site (Bos taurus, UniProt P03887+P17694+P42026); test: NADH:DQ oxidoreduction, NADH absorbance; format: biochemical
complex I (NADH:ubiquinone oxidoreductase), hydrophobic (physiological) Q-site, sequence (P03887 whole entry): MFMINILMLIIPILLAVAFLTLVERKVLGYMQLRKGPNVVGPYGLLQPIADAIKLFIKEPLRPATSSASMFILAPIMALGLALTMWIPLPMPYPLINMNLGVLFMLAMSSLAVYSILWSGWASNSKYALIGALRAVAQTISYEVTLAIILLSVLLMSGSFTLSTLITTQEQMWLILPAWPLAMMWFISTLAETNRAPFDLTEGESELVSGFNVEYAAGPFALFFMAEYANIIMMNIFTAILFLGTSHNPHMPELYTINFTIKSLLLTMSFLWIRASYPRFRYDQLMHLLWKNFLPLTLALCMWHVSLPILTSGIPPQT
complex I (NADH:ubiquinone oxidoreductase), hydrophobic (physiological) Q-site, sequence (P17694 34-463): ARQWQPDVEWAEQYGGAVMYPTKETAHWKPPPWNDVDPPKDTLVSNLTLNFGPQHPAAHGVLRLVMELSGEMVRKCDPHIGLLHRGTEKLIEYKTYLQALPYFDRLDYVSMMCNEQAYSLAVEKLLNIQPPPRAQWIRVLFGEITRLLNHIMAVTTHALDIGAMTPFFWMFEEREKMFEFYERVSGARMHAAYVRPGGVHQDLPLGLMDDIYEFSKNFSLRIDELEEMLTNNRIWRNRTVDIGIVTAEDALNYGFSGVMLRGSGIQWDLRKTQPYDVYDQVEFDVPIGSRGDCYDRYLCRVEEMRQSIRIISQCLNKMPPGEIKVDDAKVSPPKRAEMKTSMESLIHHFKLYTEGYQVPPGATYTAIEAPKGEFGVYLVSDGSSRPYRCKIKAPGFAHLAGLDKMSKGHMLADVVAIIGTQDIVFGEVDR
complex I (NADH:ubiquinone oxidoreductase), hydrophobic (physiological) Q-site, sequence (P42026 38-216): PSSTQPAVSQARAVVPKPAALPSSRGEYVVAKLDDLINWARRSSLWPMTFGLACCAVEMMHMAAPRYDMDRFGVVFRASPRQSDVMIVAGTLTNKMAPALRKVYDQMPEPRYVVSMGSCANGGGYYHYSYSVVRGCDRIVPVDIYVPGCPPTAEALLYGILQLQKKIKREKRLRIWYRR

subcomplex Iλ, sequence (P04394 33-249): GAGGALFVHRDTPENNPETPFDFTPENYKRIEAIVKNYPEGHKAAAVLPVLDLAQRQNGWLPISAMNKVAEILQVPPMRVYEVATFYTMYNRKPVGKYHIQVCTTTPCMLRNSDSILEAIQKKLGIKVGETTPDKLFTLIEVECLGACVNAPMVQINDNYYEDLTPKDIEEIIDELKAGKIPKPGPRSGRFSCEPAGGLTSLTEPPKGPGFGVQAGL
subcomplex Iλ, sequence (P25708 21-464): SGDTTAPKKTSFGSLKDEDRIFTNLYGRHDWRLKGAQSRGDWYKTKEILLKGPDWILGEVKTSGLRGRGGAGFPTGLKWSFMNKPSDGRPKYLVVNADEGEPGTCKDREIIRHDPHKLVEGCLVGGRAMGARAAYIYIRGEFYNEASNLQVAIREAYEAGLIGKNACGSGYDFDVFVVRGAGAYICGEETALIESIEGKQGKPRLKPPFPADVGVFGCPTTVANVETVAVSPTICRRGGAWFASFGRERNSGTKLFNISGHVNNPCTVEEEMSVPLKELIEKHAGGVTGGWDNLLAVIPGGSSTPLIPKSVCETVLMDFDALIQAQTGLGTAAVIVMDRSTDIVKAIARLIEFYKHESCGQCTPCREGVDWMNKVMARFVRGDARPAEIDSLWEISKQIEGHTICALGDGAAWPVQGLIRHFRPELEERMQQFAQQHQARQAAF
subcomplex Iλ, sequence (P15690 24-727, further chain): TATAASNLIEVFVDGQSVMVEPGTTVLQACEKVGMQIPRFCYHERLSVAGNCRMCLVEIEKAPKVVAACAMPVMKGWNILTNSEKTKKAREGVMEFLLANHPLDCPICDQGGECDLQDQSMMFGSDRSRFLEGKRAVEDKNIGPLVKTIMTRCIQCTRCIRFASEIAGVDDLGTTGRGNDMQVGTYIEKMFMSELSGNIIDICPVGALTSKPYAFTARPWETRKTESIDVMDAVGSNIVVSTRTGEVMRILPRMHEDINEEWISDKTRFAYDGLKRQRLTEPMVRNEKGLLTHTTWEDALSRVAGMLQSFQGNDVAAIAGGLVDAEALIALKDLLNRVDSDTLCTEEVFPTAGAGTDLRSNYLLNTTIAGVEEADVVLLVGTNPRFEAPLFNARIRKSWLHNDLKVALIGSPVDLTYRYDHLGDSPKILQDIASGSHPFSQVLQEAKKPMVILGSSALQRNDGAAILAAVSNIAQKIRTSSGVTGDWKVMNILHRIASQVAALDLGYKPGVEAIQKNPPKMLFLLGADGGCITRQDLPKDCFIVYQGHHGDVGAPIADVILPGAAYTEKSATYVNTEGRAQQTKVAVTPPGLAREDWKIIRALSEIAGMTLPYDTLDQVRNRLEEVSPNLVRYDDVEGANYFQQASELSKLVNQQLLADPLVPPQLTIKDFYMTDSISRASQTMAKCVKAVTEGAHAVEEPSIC

COC1=C(OC)C(=O)C(CC=C(C)C)=C(C)C1=O [Q1]
NADH:Q1 oxidoreduction (subcomplex Iλ): Q1 reduction by subcomplex Iλ is independent of the presence of rotenone

C/C=C(\C)[C@H](O)[C@H](C)/C=C(C)/C=C/C/C(C)=C/Cc1nc(OC)c(OC)c(O)c1C [piericidin A]
inhibition at 1 µM ([1]; read-out: % inhibition at 1 μM): ~95%

C=C(C)[C@H]1Cc2c(ccc3c2O[C@@H]2COc4cc(OC)c(OC)cc4[C@@H]2C3=O)O1 [rotenone]
inhibition at 2.3 µM ([1]; read-out: % inhibition at 2.3 μM): ~95%
